What was measured:
S. typhimurium WT [1] = assay: Combined antimicrobial study between antibiotics and SMs; format: cell-based, Salmonella enterica subsp. enterica serovar Typhimurium LT2; conditions: for MBCAlone (MBC of the antibiotic by itself, no SM): S. typhimurium WT, adjusted M9 minimal broth; for MBCComb4 (MBC of antibiotic in antibiotic+SM4 combination) / SM4R (result of synergy testing, antibiotic+SM4): [SM4] 10 μM; for MBCComb5 (MBC of antibiotic in antibiotic+SM5 combination) / SM5R (result of synergy testing, antibiotic+SM5): [SM5] 25 μM; for effect of the presence of SM on antibiotic MBC: combined with SM1, SM3, SM4 or SM5; for reduction in MBC when combined with SM1: antibiotic combined with SM1
Method: Combined antimicrobial study between antibiotics and small molecules (SMs): The antimicrobial efficacy of several antibiotics commonly used to control Salmonella was studied once combined with the selected four SMs. […] The MBC of each antibiotic were pre-determined as described previously. Bacteria challenged with only SMs or antibiotics at the same concentrations were used to determine the ATB-SM combination effects. […] Plates were incubated in a Sunrise™ Tecan kinetic microplate reader for 12 hrs at 37° C. and the optical density (OD) was measure at 600 nm as described above. After challenging, survival was recorded following plating of the bacterial suspension on agar plate and incubated at 37° C. for 36 hrs. The ATB-SM combination effect was calculated as described in Doern CD, 2014 (12).

S. typhimurium WT [2] = assay: High-throughput primary screen for S. typhimurium growth inhibitors at 200 μM; format: cell-based, Salmonella enterica subsp. enterica serovar Typhimurium LT2; conditions: adjusted M9 minimal broth, 12 hrs, 37° C., bactericidal = 100% growth inhibition and no growth on XLT4 agar, bacteriostatic = 100% growth inhibition but growth on XLT4 agar
Method: Identification of S. typhimurium growth inhibitors: The 4182 small molecules (SMs) were screened at 200 μM against S. typhimurium WT using HTS assay in a 96-well plate format. An overnight Salmonella suspension was normalized at 0.05 OD600 (approximately 3.5×10^7 CFU/ml) with an adjusted M9 minimal broth medium (12.7 mM Na2HPO4 7H2O; 22 mM KH2PO4; 18.7 mM NH4Cl; 2 mM MgSO4; 0.1 mM CaCl2; 0.4% glucose; 0.05% casamino acids). 100 μL of the suspension plus 2 μl of SMs (200 μM) were transferred into each well of a sterile, non-treated, flat bottom 96-well plate. Bacteria alone (negative control, NC), 2% DMSO plus bacteria (DMSO control), 20 μg/ml chloramphenicol or 50 μg/ml kanamycin plus bacteria (positive controls, PC), and M9 medium only were used as control. Plates were incubated in a Sunrise™ Tecan kinetic microplate reader for 12 hrs at 37° C. and the optical density (OD) was measure at 600 nm as described above. Percentage of inhibition=[…]. SMs were identified as growth inhibitors if their inhibition value after incubation was above 20% (value representing the inhibition level monitored with the DMSO controls). Cultures from wells showing no turbidimetric increase were transferred onto a XLT4 agar plate. Plates were incubated at 37° C. for 36 hrs.

Structure (SMILES): CO/N=C(\C(=O)N[C@@H]1C(=O)N2C(C(=O)O)=C(COC(C)=O)CS[C@H]12)c1csc(N)n1 [Cefotaxime, cefotaxime]
- MBCAlone (MBC of the antibiotic by itself, no SM) (S. typhimurium WT [1]): 3.2 µg/mL
- MBCComb1 (MBC of antibiotic in antibiotic+SM1 combination) (S. typhimurium WT [1]; [SM1] 50 μM): 3.2 µg/mL
- SM1R (result of synergy testing, antibiotic+SM1) (S. typhimurium WT [1]; [SM1] 50 μM): Ind
- MBCComb3 (MBC of antibiotic in antibiotic+SM3 combination) (S. typhimurium WT [1]; [SM3] 25 μM): 3.2 µg/mL
- SM3R (result of synergy testing, antibiotic+SM3) (S. typhimurium WT [1]; [SM3] 25 μM): Ind
- MBCComb4 (MBC of antibiotic in antibiotic+SM4 combination) (S. typhimurium WT [1]): 3.2 µg/mL
- SM4R (result of synergy testing, antibiotic+SM4) (S. typhimurium WT [1]): Ind
- MBCComb5 (MBC of antibiotic in antibiotic+SM5 combination) (S. typhimurium WT [1]): 3.2 µg/mL
- SM5R (result of synergy testing, antibiotic+SM5) (S. typhimurium WT [1]): Ind
- effect of the presence of SM on antibiotic MBC (S. typhimurium WT [1]): no effect

Structure (SMILES): CC[C@H]1OC(=O)[C@H](C)[C@@H](O[C@H]2C[C@@](C)(OC)[C@@H](O)[C@H](C)O2)[C@H](C)[C@@H](O[C@@H]2O[C@H](C)C[C@H](N(C)C)[C@H]2O)[C@](C)(O)C[C@@H](C)C(=O)[C@H](C)[C@@H](O)[C@]1(C)O [Erythromycin, erythromycin]
- MBCAlone (MBC of the antibiotic by itself, no SM) (S. typhimurium WT [1]): 200 µg/mL
- MBCComb1 (MBC of antibiotic in antibiotic+SM1 combination) (S. typhimurium WT [1]; [SM1] 50 μM): 200 µg/mL
- SM1R (result of synergy testing, antibiotic+SM1) (S. typhimurium WT [1]; [SM1] 50 μM): Ind
- MBCComb3 (MBC of antibiotic in antibiotic+SM3 combination) (S. typhimurium WT [1]; [SM3] 25 μM): 200 µg/mL
- SM3R (result of synergy testing, antibiotic+SM3) (S. typhimurium WT [1]; [SM3] 25 μM): Ind
- MBCComb4 (MBC of antibiotic in antibiotic+SM4 combination) (S. typhimurium WT [1]): 200 µg/mL
- SM4R (result of synergy testing, antibiotic+SM4) (S. typhimurium WT [1]): Ind
- MBCComb5 (MBC of antibiotic in antibiotic+SM5 combination) (S. typhimurium WT [1]): 200 µg/mL
- SM5R (result of synergy testing, antibiotic+SM5) (S. typhimurium WT [1]): Ind
- effect of the presence of SM on antibiotic MBC (S. typhimurium WT [1]): no effect

Structure (SMILES): C[C@@H](O)[C@H]1C(=O)N2C(C(=O)O)=C(S[C@@H]3CN[C@H](C(=O)N(C)C)C3)[C@H](C)[C@H]12 [Meropenem, meropenem]
- MBCAlone (MBC of the antibiotic by itself, no SM) (S. typhimurium WT [1]): 0.2 µg/mL
- MBCComb1 (MBC of antibiotic in antibiotic+SM1 combination) (S. typhimurium WT [1]; [SM1] 5 μM): 0.16 µg/mL
- SM1R (result of synergy testing, antibiotic+SM1) (S. typhimurium WT [1]; [SM1] 5 μM): Add
- MBCComb1 (MBC of antibiotic in antibiotic+SM1 combination) (S. typhimurium WT [1]; [SM1] 10 μM): 0.08 µg/mL
- SM1R (result of synergy testing, antibiotic+SM1) (S. typhimurium WT [1]; [SM1] 10 μM): Add
- MBCComb1 (MBC of antibiotic in antibiotic+SM1 combination) (S. typhimurium WT [1]; [SM1] 20 μM): 0.04 µg/mL
- SM1R (result of synergy testing, antibiotic+SM1) (S. typhimurium WT [1]; [SM1] 20 μM): Add
- MBCComb3 (MBC of antibiotic in antibiotic+SM3 combination) (S. typhimurium WT [1]; [SM3] 15 μM): 0.16 µg/mL
- SM3R (result of synergy testing, antibiotic+SM3) (S. typhimurium WT [1]; [SM3] 15 μM): Ind
- MBCComb3 (MBC of antibiotic in antibiotic+SM3 combination) (S. typhimurium WT [1]; [SM3] 20 μM): 0.08 µg/mL
- SM3R (result of synergy testing, antibiotic+SM3) (S. typhimurium WT [1]; [SM3] 20 μM): Ind
- MBCComb4 (MBC of antibiotic in antibiotic+SM4 combination) (S. typhimurium WT [1]): 0.2 µg/mL
- SM4R (result of synergy testing, antibiotic+SM4) (S. typhimurium WT [1]): Ind
- MBCComb5 (MBC of antibiotic in antibiotic+SM5 combination) (S. typhimurium WT [1]): 0.2 µg/mL
- SM5R (result of synergy testing, antibiotic+SM5) (S. typhimurium WT [1]): Ind
- reduction in MBC when combined with SM1 (S. typhimurium WT [1]): up to 80%

Structure (SMILES): CCn1cc(C(=O)O)c(=O)c2ccc(C)nc21 [Nalidixic Acid, nalidixic acid]
- MBCAlone (MBC of the antibiotic by itself, no SM) (S. typhimurium WT [1]): 16 µg/mL
- MBCComb1 (MBC of antibiotic in antibiotic+SM1 combination) (S. typhimurium WT [1]; [SM1] 30 μM): 8 µg/mL
- SM1R (result of synergy testing, antibiotic+SM1) (S. typhimurium WT [1]; [SM1] 30 μM): Ind
- MBCComb1 (MBC of antibiotic in antibiotic+SM1 combination) (S. typhimurium WT [1]; [SM1] 40 μM): 4.8 µg/mL
- SM1R (result of synergy testing, antibiotic+SM1) (S. typhimurium WT [1]; [SM1] 40 μM): Ind
- MBCComb3 (MBC of antibiotic in antibiotic+SM3 combination) (S. typhimurium WT [1]; [SM3] 25 μM): 16 µg/mL
- SM3R (result of synergy testing, antibiotic+SM3) (S. typhimurium WT [1]; [SM3] 25 μM): Ind
- MBCComb4 (MBC of antibiotic in antibiotic+SM4 combination) (S. typhimurium WT [1]): 16 µg/mL
- SM4R (result of synergy testing, antibiotic+SM4) (S. typhimurium WT [1]): Ind
- MBCComb5 (MBC of antibiotic in antibiotic+SM5 combination) (S. typhimurium WT [1]): 16 µg/mL
- SM5R (result of synergy testing, antibiotic+SM5) (S. typhimurium WT [1]): Ind
- reduction in MBC when combined with SM1 (S. typhimurium WT [1]): up to 70%

Structure (SMILES): CN(Cc1ccccc1)CC(O)COc1ccc(CNCc2ccc(Cl)s2)cc1 (stereo not shown) [SM6, 1-[benzyl(methyl)amino]-3-[4-({[(5-chloro-2-thienyl)methyl]amino}methyl)phenoxy]-2-propanol]
- Effect on S. Typhimurium at 200 μM (S. typhimurium WT [2]): Bactericidal

Structure (SMILES): O=[N+]([O-])c1ccc(F)c(N=Cc2cc(Cl)cc(Cl)c2O)c1 [SM7, 2,4-dichloro-6-{[(2-fluoro-5-nitrophenyl)imino]methyl}phenol]
- Effect on S. Typhimurium at 200 μM (S. typhimurium WT [2]): Bactericidal

Structure (SMILES): COc1cccc(N=Cc2cc(Cl)cc(Cl)c2O)c1 [SM8, 2,4-dichloro-6-{[(3-methoxyphenyl)imino]methyl}phenol]
- Effect on S. Typhimurium at 200 μM (S. typhimurium WT [2]): Bactericidal

Structure (SMILES): CC(C)Cc1ccc(CN2CCCC(NC(=O)CN3CCCN(C)CC3)C2)cc1 (stereo not shown) [SM9, N-[1-(4-isobutylbenzyl)-3-piperidinyl]-2-(4-methyl-1,4-diazepan-1-yl)acetamide]
- Effect on S. Typhimurium at 200 μM (S. typhimurium WT [2]): Bactericidal

Structure (SMILES): CCOC(=O)c1c(N)sc(C(C)=O)c1C [SM10, ethyl 5-acetyl-2-amino-4-methyl-3-thiophenecarboxylate]
- Effect on S. Typhimurium at 200 μM (S. typhimurium WT [2]): Bacteriostatic

Structure (SMILES): COc1cccc(C2(c3ccc(O)cc3)CCCC2)c1 [SM11, 4-[1-(3-methoxyphenyl)cyclopentyl]phenol]
- Effect on S. Typhimurium at 200 μM (S. typhimurium WT [2]): Bacteriostatic

Structure (SMILES): O=C(O)c1cc(NN=Nc2ccc(Br)cc2)cc([N+](=O)[O-])c1 [SM12, 3-[3-(4-bromophenyl)-2-triazen-1-yl]-5-nitrobenzoic acid]
- Effect on S. Typhimurium at 200 μM (S. typhimurium WT [2]): Bacteriostatic

Structure (SMILES): Clc1ccc(CCNC2CCN(Cc3ccccc3)CC2)c(Cl)c1 [SM13, 1-benzyl-N-[2-(2,4-dichlorophenyl)ethyl]-4-piperidinamine]
- Effect on S. Typhimurium at 200 μM (S. typhimurium WT [2]): Bacteriostatic

Structure (SMILES): COc1ccc(CNCc2ccc(C)cc2)cc1OCC(O)CN1CCCCCCC1 (stereo not shown) [SM15, 1-(1-azocanyl)-3-(2-methoxy-5-{[(4-methylbenzyl)amino]methyl}phenoxy)-2-propanol]
- Effect on S. Typhimurium at 200 μM (S. typhimurium WT [2]): Bacteriostatic

Structure (SMILES): COc1cccc(N=Cc2cc(Br)ccc2O)c1 [SM16, 4-bromo-2-{[(3-methoxyphenyl)imino]methyl}phenol]
- Effect on S. Typhimurium at 200 μM (S. typhimurium WT [2]): Bacteriostatic

Structure (SMILES): CN1C(=O)NC(=O)C(=Cc2ccc([N+](=O)[O-])o2)C1=O [SM17, 1-methyl-5-[(5-nitro-2-furyl)methylene]-2,4,6(1H,3H,5H)-pyrimidinetrione]
- Effect on S. Typhimurium at 200 μM (S. typhimurium WT [2]): Bacteriostatic

Structure (SMILES): CC1=NN(c2ccccc2)C(=O)C1C(=O)c1ccccc1 (stereo not shown) [SM18, 4-benzoyl-5-methyl-2-phenyl-2,4-dihydro-3H-pyrazol-3-one]
- Effect on S. Typhimurium at 200 μM (S. typhimurium WT [2]): Bacteriostatic

Structure (SMILES): C(=Cc1ccccc1)CN1CCN(C2c3ccccc3-c3ccccc32)CC1 [SM19, 1-(9H-fluoren-9-yl)-4-(3-phenyl-2-propen-1-yl)piperazine]
- Effect on S. Typhimurium at 200 μM (S. typhimurium WT [2]): Bacteriostatic
